Values after ≈ are worked out from the molar mass of the structure shown.
Legend:
Format in all cases: cell-based
A.fumigatus = experiment: Disc diffusion assay
Method: (§1) Pathogenic strains of fungi were obtained from the Mycology Department of Vallabhbhai Patel Chest Institute, Delhi. All the strains were grown on Sabouraud dextrose agar at 37°C. The conidia form these cultures were harvested and suspended in Sabouraud maltose broth. The number of conidia was counted using haemocytometer and their number in the suspension was adjusted to as per need of the experiment.
The disc diffusion test was performed as per described in the section of details of invention. Amphotericin B 1.25 µg/disc was used in assay as positive control standard drug. Additional discs impregnated with equivalent amount of solvent were also used in the assay as negative controls (Fig: 5). […] Table 2: Antifungal activity of compound by disc diffusion method
The potency of the compound was determined with the help of standard curve constructed using amphotericin B as standard drug against A.fumigatus. Standard curve was prepared according to method given in the Indian Pharmacopoeia. The corrected values of diameter of zone of inhibition along with lowest and highest values were determined. These values were plotted on semilog paper to prepare standard curve. The value of diameter of zone of inhibition obtained for compound was put into the standard curve and corresponding dose producing the effect equivalent to amphotericin B was determined to find out the potency of the compound (Fig: 6).

Aspergillus species = experiment: Spore germination inhibition assay; conditions: percent spore germination inhibition, 10 hrs at 37° C
Method: as §1
The modified spore germination inhibition assay was performed as described earlier (Sureder P. and Janaiah C., 1987, Ind. J. Expt. Biol., 25, 233-234). The fungal species were grown on Sabouraud dextrose agar plates at 37°C for 96 h. […] The conidia were counted and their number in the suspension was adjusted to 1x10^4 per ml. The standard drug Amphotericin B and test samples were initially dissolved in minimal quantity of dimethylsulfoxide (DMSO) and then diluted with Sabouraud dextrose medium. […] The number of germinated and non-germinated spores was counted. The percent spore germination inhibition (PSGI) was calculated using following formula PSGI = 100-(No.of spores germinated in drug treated well)/(No.of spores germinated in control well) [formula] […]
The spore germination inhibition assay was performed to evaluate the activity of the compound. […] The number of germinated and non-germinated spores was counted and the percent spore germination inhibition (PSGI) was calculated. […]

RAW cells = tested on: RAW cells
Method: The in vitro toxicity of the active molecule was studied by MTT assay using RAW cells (Mossman, T., 1983, J. Immunol. Methods, 65, 55-63).
The stock culture of RAW cells was obtained from National Facility for Cell and Tissue Culture, Pune. Cells were maintained in RPMI - 1640 medium supplemented with glutamine (2.3 gm/L), fetal calf serum (10% v/v) and gentamycin (50.0 mg/L) at 37°C in Nuair IR Autoflow water Jacketed carbon dioxide incubator.
The stock solution of the compound was prepared by dissolving 2.5 mg of the purified compound in minimum amount of DMSO and then diluted with double distilled water to make the final volume 1.0-ml. The different concentrations ranging from 1250.0 µg/ml to 19.5 µg/ml were tested in the cytotoxicity assay.
The cells were harvested at the log phase of growth confluency from the flask. The homogeneous suspension of cells was prepared in 2.0 ml of culture medium. The number of cells in the suspension was counted using a hemocytometer and the cell suspension was diluted in such a way so as to obtain 5x10^7 viable cells per ml. The viability of the cells was checked with trypan blue dye exclusion test. The cytotoxicity assay was performed in 96 wells flat bottom tissue culture plates (Nunc Nunclon). The cells ([…]) in 100.0 µl volume were seeded into each well. The plate was incubated at 37 °C in atmosphere of 5% (v/v) CO2 for 8 h. The wells were examined microscopically for the formation of monolayer of the cells. Various concentrations ranging from 1250.0 µg/ml to 19.5 µg/ml of the compound PC-1 (metelatropinyl ester) were added to the monolayer of cells. In +ve control wells, a known cytotoxic protein obtained from A. fumigatus, was used. […] After lysis of the cells, the plates were read at 540 nm using plate reader (Spectra Max 190, Molecular Device).
The toxicity of the compound was expressed as percentage with respect to that obtained in -ve control sample. The percent cytotoxicity was calculated using the formula given below. % Cytotoxicity = (OD in-ve control-OD in the test)/(OD in-ve control) × 100 [formula] […]

With `CCCCC(=O)OC(C)CC1NCC(C)=C1C` (stereo not drawn) [PC-1, 2-(3,4-dimethyl-2,5-dihydro-1H-pyrrol-2-yl)-1-methylethyl pentanoate] as the molecule, how does the “amount of amphotericin B producing an equivalent diameter of zone of inhibition” value (A.fumigatus; 10 µg/disc of the compound, standard curve with amphotericin B) read?
Its value is 2.67 µg.

And the zone of inhibition at 5 µg/disc (A.fumigatus; Aspergillus fumigatus, 5.0 µg/disc, 48 hrs, read-out: Diameter of zone of inhibition)?
The zone of inhibition at 5 µg/disc was 6.25 mm.

What about the zone of inhibition at 10 µg/disc (A.fumigatus; Aspergillus fumigatus, 10.0 µg/disc, 48 hrs, read-out: Diameter of zone of inhibition) of the same molecule?
The zone of inhibition at 10 µg/disc was 8.5 mm.

What about the zone of inhibition at 20 µg/disc (A.fumigatus; Aspergillus fumigatus, 20.0 µg/disc, 48 hrs, read-out: Diameter of zone of inhibition) of the same molecule?
The zone of inhibition at 20 µg/disc was 9.25 mm.

And the “less potent as compared to amphotericin B” value (A.fumigatus; disc diffusion standard curve)?
Its value is 3.74 time.

What about the MIC (Aspergillus species) of the same molecule?
Its MIC is 87.5 µg/mL (≈ 366 µM).

What about the “concentration completely non-toxic to the cells” value (RAW cells) of the same molecule?
Its value is “up to 312.5 µg/ml”.

And the “CT50 (dose cytotoxic to 50% of the cells)” value (RAW cells; RAW cells, MTT, 12 h)?
The value was 889.2 µg/mL.

What about the “less cytotoxic than the standard antifungal drug such as Amphotericin B” value (RAW cells; comparison with Amphotericin B) of the same molecule?
Its value is 57.8 times.

— patent EP1487791B1, “A NOVEL ANTIFUNGAL MOLECULE 2-(3,4-DIMETHYL-2,5-DIHYDRO-1H-PYRROL-2-YL)- METHYLETHYL PENTANOATE” (priority 2002, dated 2003)
